Data as given in patent US20090012165A1, “PHARMACEUTICAL COMBINATION OF NSAID AND PROSTAGLANDIN COMPOUND” (priority 2007, published 2009).

Test system: naproxen-induced gastric ulcer
Assay: naproxen-induced gastric ulcer in rats (ulcer index 5 hours after oral dosing)
Assay type: in vivo, Male Crl: CD (SD) rats
Conditions: for Ulcer Index (Mean ± S.E.): rats; for % Inhibition of ulcer index: vs vehicle + naproxen group
Experimental: Male Crl: […] The animal was euthanized by cervical dislocation 5 hours after administration of the dosing preparation, and the stomach was removed. The stomach was filled with 10 mL of saline and fixed in 1% formalin. Then the stomach was opened along the greater curvature and gently washed with saline. The length of the major axis of each gastric ulcer was measured with digital slide gauges, and the total length of the major axes of all gastric ulcers (ulcer index) was obtained.

## CC[C@H](C)CC(F)(F)C(=O)CC[C@H]1[C@H](O)CC(=O)[C@@H]1CCCCCCC(=O)O [Compound A, 13,14-dihydro-15-keto-16,16-difluoro-18(S)-methyl-PGE1]
Compound A 1 μg/kg + naproxen 200 mg/kg oral, 5 hours
  Ulcer Index (Mean ± S.E.): 63.47 ± 10.87
Compound A 1 μg/kg + naproxen 200 mg/kg
  % Inhibition of ulcer index: 22%
Compound A 10 μg/kg + naproxen 200 mg/kg oral, 5 hours, p<0.05 vs vehicle + naproxen
  Ulcer Index (Mean ± S.E.): 12.15 ± 3.45
Compound A 10 μg/kg + naproxen 200 mg/kg
  % Inhibition of ulcer index: 85%
Compound A 10 μg/kg and 100 μg/kg + naproxen 200 mg/kg groups compared to vehicle + naproxen group
  reduction of ulcer formation, significance (in words): Significant reductions of ulcer formation
Compound A 100 μg/kg + naproxen 200 mg/kg oral, 5 hours, p<0.01 vs vehicle + naproxen
  Ulcer Index (Mean ± S.E.): 0.50 ± 0.40
Compound A 100 μg/kg + naproxen 200 mg/kg
  % Inhibition of ulcer index: 99.4%
Compound A at 1, 10 and 100 μg/kg with naproxen 200 mg/kg, dose-dependent
  ulcer formation induced by naproxen (in words): reduced
Overall conclusion of Example 1
  protective effect against ulcer formation in combination with NSAID (in words): potent protective effect against ulcer formation

## COc1ccc2cc([C@H](C)C(=O)O)ccc2c1 [naproxen, reference compound]
Vehicle (0.01% Tween 80) + naproxen 200 mg/kg oral, 5 hours after administration, n=10
  Ulcer Index (Mean ± S.E.): 81.48 ± 15.05

## Cc1c(OCC(F)(F)F)ccnc1C[S+]([O-])c1nc2ccccc2[nH]1 (stereo not shown) [Lansoprazole, lansoprazole, reference compound]
Lansoprazole 1000 μg/kg + naproxen 200 mg/kg oral, 5 hours
  Ulcer Index (Mean ± S.E.): 68.09 ± 7.61
Lansoprazole 1000 μg/kg + naproxen 200 mg/kg
  % Inhibition of ulcer index: 16%
Lansoprazole 1000 μg/kg with naproxen
  effect on naproxen-induced gastric ulcers (in words): did not have a significant effect
